pIC50: −log10 of the molar value. “Also recorded” adds a separate entry of the source. One block for each molecule: values may come before it.
Columns and labels:
HK853 = HK853 (Thermotoga maritima, UniProt Q9WZV7); assay: Inhibition of HK853 activity, BODIPY-ATPγS competition, in-gel fluorescence; type: biochemical; details: for IC50 values (μM) (95% confidence interval), n = 2: HK853 inhibitory activity, value (95% confidence interval)
HSP90α = HSP90α (Homo sapiens, UniProt P07900); assay: HSP90 inhibition assay, fluorescence polarization Hsp90α kit; type: binding
HK853 D411N = assay: Thermal shift assay; details: D411N alone Tm 67 °C; inhibitor 1 mM; no significant change
WT HK853 = assay: Thermal shift assay; details: WT HK853 alone Tm = 70 °C; inhibitor 1 mM

SMILES: c1ccc(Nc2ncnc3[nH]cnc23)cc1 [Compound 22, 6-anilinopurine]
- fold superior potency compared to 3 (HK853; HK853): ~20 fold
- fold superior potency compared to 9 (HK853; HK853): ~60 fold

SMILES: Nc1nc2ncnc-2c[nH]1 [Compound 21, 2-aminopurine]
- HK853 inhibition, result in words (HK853): low affinity; also recorded: negligible activity

- HK853 inhibition, result in words (HK853): negligible activity
SMILES: Nc1nc(N)c2ncn([C@@H]3O[C@H](CO)[C@@H](O)[C@H]3O)c2n1 [Compound 14, aminoadenosine]

- pIC50 (HSP90α): ≥ 2.90
SMILES: CC1CC(Nc2ncnc3nc[nH]c23)CC(C)(C)C1 (stereo not drawn) [Compound 4, 6-N,N-(3,3,5-trimethylcyclohexyl) adenine]

- HK853 inhibition, result in words (HK853): negligible activity
SMILES: Nc1nc(Cl)c2ncn([C@@H]3O[C@H](CO)[C@@H](O)[C@H]3O)c2n1 [Compound 20, 2-amino,6-chloropurine ribose]

- IC50 values (μM) (95% confidence interval), n = 2 (HK853): No Inhibition
SMILES: O=c1[nH]cnc2c1ncn2[C@@H]1O[C@H](CO)[C@@H](O)[C@H]1O [Inosine, reference compound]

SMILES: Nc1ncnc2c1ncn2[C@@H]1O[C@H](COP(=O)(O)OP(=O)(O)O)[C@@H](O)[C@H]1O [Compound 6, ADP, reference compound]
- change in the Tm value of HK853 D411N (HK853 D411N): ≤ 2 °C
- Tm of WT HK853 in the presence of compound (WT HK853): 80 °C

- pIC50 (HSP90α): ≥ 2.90
SMILES: c1ccc(CCNc2ncnc3[nH]cnc23)cc1 [Compound 3, 6-N-phenylethyladenine]

- HK853 inhibition, result in words (HK853): minimal activity
SMILES: Nc1ncnc2[nH]nnc12 [Compound 30, 8-azadenine]

SMILES: Nc1nc2[nH]cnc2c(=O)[nH]1 [Guanine, reference compound]
- HK853 inhibition, result in words (HK853): neither guanine or guanosine inhibited HK853

- HK853 inhibition, result in words (HK853): negligible activity
SMILES: Nc1nc(N)c2nc[nH]c2n1 [Compound 13, 2-aminoadenine]

SMILES: OC[C@H]1O[C@@H](n2cnc3c(NCCc4ccccc4)ncnc32)[C@H](O)[C@@H]1O [Compound 10, 6-N-phenylethyladenosine]
- HK853 inhibition, result in words (HK853): negligible activity
- fold decreased potency (HK853; HK853, riboside 10 versus lead 3): > 20 fold

SMILES: Cn1cnc2nc(Cl)nc(N)c21 [Compound 28, 2-chloro,7-N-methyladenine]
- HK853 inhibition, result in words (HK853): inactive
- IC50 values (μM) (95% confidence interval), n = 2 (HK853): No Inhibition

- HK853 inhibition, result in words (HK853): failed to show any activity
- IC50 values (μM) (95% confidence interval), n = 2 (HK853): No Inhibition
SMILES: Cn1cnc2ncnc(N)c21 [Compound 26, 7-N-methyladenine]

SMILES: CCCN(CCC)c1[nH]cnc2ncnc1-2 [Compound 1, 6-N,N-dipropyl adenine]
- change in the Tm value of HK853 D411N (HK853 D411N): ≤ 2 °C

SMILES: OC[C@H]1O[C@@H](n2cnc3c(Nc4ccccc4)ncnc32)[C@H](O)[C@@H]1O [Compound 23, 6-anilinopurine ribose]
- HK853 inhibition, result in words (HK853): failed to inhibit
- IC50 values (μM) (95% confidence interval), n = 2 (HK853): No Inhibition

SMILES: Nc1nc2c(ncn2[C@@H]2O[C@H](CO)[C@@H](O)[C@H]2O)c(=O)[nH]1 [Guanosine, reference compound]
- HK853 inhibition, result in words (HK853): neither guanine or guanosine inhibited HK853
- IC50 values (μM) (95% confidence interval), n = 2 (HK853): No Inhibition
